Data: patent US12291519B2, “2-hydroxycycloalkane-1-carbamoyl” (Idorsia Pharmaceuticals Ltd, priority 2019, dated 2025)

How the values were obtained:
human Gal-1 (hGal-1) = experiment: Competitive binding assay: biotinylated hGal-1 binding to microplate-adsorbed asialofetuin (ASF); conditions: Activity on hGal-1; binding of biotinylated hGal-1 to ASF-coated plates; mean values
Method in brief: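 Biotinylated hGal-1 (300–1000 ng/mL; optionally a cysteine-free all-serine variant) incubated 3 h at 4 °C with compound on asialofetuin-coated plates, then streptavidin-peroxidase 1 h at 4 °C. ABTS readout at OD 410 nm after 30–45 min; IC50 given as mean of several runs.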

human Gal-3 (hGal-3) = human Gal-3 (hGal-3) (Homo sapiens (Human), UniProt P17931); experiment: Competitive binding assay: biotinylated hGal-3 binding to microplate-adsorbed asialofetuin (ASF); conditions: Activity on hGal-3; binding of biotinylated hGal-3 to ASF-coated plates; mean values
Chain of human Gal-3 (hGal-3) (P17931 whole entry): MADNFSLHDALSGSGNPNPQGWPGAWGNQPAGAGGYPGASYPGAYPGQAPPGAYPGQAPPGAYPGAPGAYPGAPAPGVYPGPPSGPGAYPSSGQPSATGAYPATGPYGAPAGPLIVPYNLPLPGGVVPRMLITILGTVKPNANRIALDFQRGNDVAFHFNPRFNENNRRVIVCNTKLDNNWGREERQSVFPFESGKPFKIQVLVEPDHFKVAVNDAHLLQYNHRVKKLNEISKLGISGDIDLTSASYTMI
Method in brief: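 Serially diluted compounds competed with biotinylated human Gal-3 for binding to plate-adsorbed asialofetuin over 3 h at 4 °C. Bound Gal-3 was detected with streptavidin-peroxidase (80 ng/mL, 1 h, 4 °C) and ABTS substrate. IC50 values are means of several measurements.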

Chain of human Gal-1 (hGal-1) (P09382 2-135 limits assumed): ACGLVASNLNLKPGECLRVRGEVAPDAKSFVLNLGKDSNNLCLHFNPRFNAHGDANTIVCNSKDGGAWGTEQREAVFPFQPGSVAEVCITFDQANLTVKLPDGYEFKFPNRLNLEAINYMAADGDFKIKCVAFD

SMILES	IC50 (human Gal-1 (hGal-1))	IC50 (human Gal-3 (hGal-3))
COc1cc(C#N)cc(N(C(=O)[C@@H]2O[C@H](CO)[C@H](O)[C@H](n3cc(-c4cc(F)c(F)c(F)c4)nn3)[C@H]2OC)[C@H]2CCCC[C@@H]2O)c1 [Example 108, (2R,3R,4S,5R,6R)-N-(3-cyano-5-methoxyphenyl)-5-hydroxy-N-((1S,2S)-2-hydroxycyclohexyl)-6-(hydroxymethyl)-3-methoxy-4-(4-(3,4,5-trifluorophenyl)-1H-1,2,3-triazol-1-yl)tetrahydro-2H-pyran-2-carboxamide]	1570 nM	24 nM
CO[C@@H]1[C@@H](n2cc(-c3cc(F)c(F)c(F)c3)nn2)[C@@H](O)[C@@H](CO)O[C@H]1C(=O)N(c1cc(Br)ccc1C)[C@H]1CCCC[C@@H]1O [Example 109, (2R,3R,4S,5R,6R)-N-(5-bromo-2-methylphenyl)-5-hydroxy-N-((1S,2S)-2-hydroxycyclohexyl)-6-(hydroxymethyl)-3-methoxy-4-(4-(3,4,5-trifluorophenyl)-1H-1,2,3-triazol-1-yl)tetrahydro-2H-pyran-2-carboxamide]	100 nM	17 nM
CO[C@@H]1[C@@H](n2cc(-c3cc(F)c(F)c(F)c3)nn2)[C@@H](O)[C@@H](CO)O[C@H]1C(=O)N(c1ccc(Cl)cc1)[C@H]1CCCC[C@@H]1O [Example 111, (2R,3R,4S,5R,6R)-N-(4-chlorophenyl)-5-hydroxy-N-((1S,2S)-2-hydroxycyclohexyl)-6-(hydroxymethyl)-3-methoxy-4-(4-(3,4,5-trifluorophenyl)-1H-1,2,3-triazol-1-yl)tetrahydro-2H-pyran-2-carboxamide]	4220 nM	158 nM
CO[C@@H]1[C@@H](n2cc(-c3cc(F)c(F)c(F)c3)nn2)[C@@H](O)[C@@H](CO)O[C@H]1C(=O)N(c1cc(F)cc(C#N)c1)[C@H]1CCCC[C@@H]1O [Example 113, (2R,3R,4S,5R,6R)-N-(3-cyano-5-fluorophenyl)-5-hydroxy-N-((1S,2S)-2-hydroxycyclohexyl)-6-(hydroxymethyl)-3-methoxy-4-(4-(3,4,5-trifluorophenyl)-1H-1,2,3-triazol-1-yl)tetrahydro-2H-pyran-2-carboxamide]	520 nM	18 nM
CO[C@@H]1[C@@H](n2cc(-c3cc(F)c(F)c(F)c3)nn2)[C@@H](O)[C@@H](CO)O[C@H]1C(=O)N(c1cccc(F)c1)[C@H]1CCCC[C@@H]1O [Example 114, (2R,3R,4S,5R,6R)-N-(3-fluorophenyl)-5-hydroxy-N-((1S,2S)-2-hydroxycyclohexyl)-6-(hydroxymethyl)-3-methoxy-4-(4-(3,4,5-trifluorophenyl)-1H-1,2,3-triazol-1-yl)tetrahydro-2H-pyran-2-carboxamide]	2010 nM	49 nM
CO[C@@H]1[C@@H](n2cc(-c3cc(F)c(F)c(F)c3)nn2)[C@@H](O)[C@@H](CO)O[C@H]1C(=O)N(c1cccc(C#N)c1)[C@H]1CCCC[C@@H]1O [Example 115, (2R,3R,4S,5R,6R)-N-(3-cyanophenyl)-5-hydroxy-N-((1S,2S)-2-hydroxycyclohexyl)-6-(hydroxymethyl)-3-methoxy-4-(4-(3,4,5-trifluorophenyl)-1H-1,2,3-triazol-1-yl)tetrahydro-2H-pyran-2-carboxamide]	1000 nM	25 nM
CO[C@@H]1[C@@H](n2cc(-c3cc(F)c(F)c(F)c3)nn2)[C@@H](O)[C@@H](CO)O[C@H]1C(=O)N(c1cccc(C(F)(F)F)c1)[C@H]1CCCC[C@@H]1O [Example 116, (2R,3R,4S,5R,6R)-5-hydroxy-N-((1S,2S)-2-hydroxycyclohexyl)-6-(hydroxymethyl)-3-methoxy-N-(3-(trifluoromethyl)phenyl)-4-(4-(3,4,5-trifluorophenyl)-1H-1,2,3-triazol-1-yl)tetrahydro-2H-pyran-2-carboxamide]	1950 nM	26 nM
CO[C@@H]1[C@@H](n2cc(-c3cc(F)c(F)c(F)c3)nn2)[C@@H](O)[C@@H](CO)O[C@H]1C(=O)N(c1cc(F)cc(F)c1)[C@H]1CCCC[C@@H]1O [Example 117, (2R,3R,4S,5R,6R)-N-(3,5-difluorophenyl)-5-hydroxy-N-((1S,2S)-2-hydroxycyclohexyl)-6-(hydroxymethyl)-3-methoxy-4-(4-(3,4,5-trifluorophenyl)-1H-1,2,3-triazol-1-yl)tetrahydro-2H-pyran-2-carboxamide]	978 nM	38 nM
COc1cc(F)cc(N(C(=O)[C@@H]2O[C@H](CO)[C@H](O)[C@H](n3cc(-c4cc(F)c(F)c(F)c4)nn3)[C@H]2OC)[C@H]2CCCC[C@@H]2O)c1 [Example 118, (2R,3R,4S,5R,6R)-N-(3-fluoro-5-methoxyphenyl)-5-hydroxy-N-((1S,2S)-2-hydroxycyclohexyl)-6-(hydroxymethyl)-3-methoxy-4-(4-(3,4,5-trifluorophenyl)-1H-1,2,3-triazol-1-yl)tetrahydro-2H-pyran-2-carboxamide]	1480 nM	26 nM
CO[C@@H]1[C@@H](n2cc(-c3cc(F)c(F)c(F)c3)nn2)[C@@H](O)[C@@H](CO)O[C@H]1C(=O)N(c1cc(C)cc(F)c1)[C@H]1CCCC[C@@H]1O [Example 119, (2R,3R,4S,5R,6R)-N-(3-fluoro-5-methylphenyl)-5-hydroxy-N-((1S,2S)-2-hydroxycyclohexyl)-6-(hydroxymethyl)-3-methoxy-4-(4-(3,4,5-trifluorophenyl)-1H-1,2,3-triazol-1-yl)tetrahydro-2H-pyran-2-carboxamide]	1830 nM	30 nM
CO[C@@H]1[C@@H](n2cc(-c3cc(F)c(F)c(F)c3)nn2)[C@@H](O)[C@@H](CO)O[C@H]1C(=O)N(c1cc(F)cc(Br)c1)[C@H]1CCCC[C@@H]1O [Example 120, (2R,3R,4S,5R,6R)-N-(3-bromo-5-fluorophenyl)-5-hydroxy-N-((1S,2S)-2-hydroxycyclohexyl)-6-(hydroxymethyl)-3-methoxy-4-(4-(3,4,5-trifluorophenyl)-1H-1,2,3-triazol-1-yl)tetrahydro-2H-pyran-2-carboxamide]	422 nM	21 nM
CO[C@@H]1[C@@H](n2cc(-c3cc(F)c(F)c(F)c3)nn2)[C@@H](O)[C@@H](CO)O[C@H]1C(=O)N(c1cc(F)cc(Cl)c1)[C@H]1CCCC[C@@H]1O [Example 121, (2R,3R,4S,5R,6R)-N-(3-chloro-5-fluorophenyl)-5-hydroxy-N-((1S,2S)-2-hydroxycyclohexyl)-6-(hydroxymethyl)-3-methoxy-4-(4-(3,4,5-trifluorophenyl)-1H-1,2,3-triazol-1-yl)tetrahydro-2H-pyran-2-carboxamide]	449 nM	19 nM
CO[C@@H]1[C@@H](n2cc(-c3cc(F)c(F)c(F)c3)nn2)[C@@H](O)[C@@H](CO)O[C@H]1C(=O)N(c1cccc(C)c1)[C@H]1CCCC[C@@H]1O [Example 122, (2R,3R,4S,5R,6R)-5-hydroxy-N-((1S,2S)-2-hydroxycyclohexyl)-6-(hydroxymethyl)-3-methoxy-N-(m-tolyl)-4-(4-(3,4,5-trifluorophenyl)-1H-1,2,3-triazol-1-yl)tetrahydro-2H-pyran-2-carboxamide]	4750 nM	43 nM
CO[C@@H]1[C@@H](n2cc(-c3cc(F)c(F)c(F)c3)nn2)[C@@H](O)[C@@H](CO)O[C@H]1C(=O)N(c1ccc2nc(C)[nH]c2c1)[C@H]1CCCC[C@@H]1O [Example 123, (2R,3R,4S,5R,6R)-5-hydroxy-N-((1S,2S)-2-hydroxycyclohexyl)-6-(hydroxymethyl)-3-methoxy-N-(2-methyl-1H-benzo[d]imidazol-6-yl)-4-(4-(3,4,5-trifluorophenyl)-1H-1,2,3-triazol-1-yl)tetrahydro-2H-pyran-2-carboxamide]	5880 nM	85 nM
O=C(CO[C@@H]1[C@@H](n2cc(-c3cc(F)c(F)c(F)c3)nn2)[C@@H](O)[C@@H](CO)O[C@H]1C(=O)N(c1cc(Cl)cc(Cl)c1)[C@H]1CCCC[C@@H]1O)N1CCOCC1 [Example 124, (2R,3R,4S,5R,6R)—N-(3,5-dichlorophenyl)-5-hydroxy-N-((1S,2S)-2-hydroxycyclohexyl)-6-(hydroxymethyl)-3-(2-morpholino-2-oxoethoxy)-4-(4-(3,4,5-trifluorophenyl)-1H-1,2,3-triazol-1-yl)tetrahydro-2H-pyran-2-carboxamide]	226 nM	12 nM
O=C(CO[C@@H]1[C@@H](n2cc(-c3cc(F)c(F)c(F)c3)nn2)[C@@H](O)[C@@H](CO)O[C@H]1C(=O)N(c1cc(Cl)cc(Cl)c1)[C@H]1CCCC[C@@H]1O)N1CC[C@H](O)C1 [Example 125, (2R,3R,4S,5R,6R)—N-(3,5-dichlorophenyl)-5-hydroxy-N-((1S,2S)-2-hydroxycyclohexyl)-6-(hydroxymethyl)-3-(2-((S)-3-hydroxypyrrolidin-1-yl)-2-oxoethoxy)-4-(4-(3,4,5-trifluorophenyl)-1H-1,2,3-triazol-1-yl)tetrahydro-2H-pyran-2-carboxamide]	134 nM	9 nM
O=C(CO[C@@H]1[C@@H](n2cc(-c3cc(F)c(F)c(F)c3)nn2)[C@@H](O)[C@@H](CO)O[C@H]1C(=O)N(c1cc(Cl)cc(Cl)c1)[C@H]1CCCC[C@@H]1O)N1CC[C@@H](O)C1 [Example 126, (2R,3R,4S,5R,6R)—N-(3,5-dichlorophenyl)-5-hydroxy-N-((1S,2S)-2-hydroxycyclohexyl)-6-(hydroxymethyl)-3-(2-((R)-3-hydroxypyrrolidin-1-yl)-2-oxoethoxy)-4-(4-(3,4,5-trifluorophenyl)-1H-1,2,3-triazol-1-yl)tetrahydro-2H-pyran-2-carboxamide]	134 nM	16 nM
